From ChEMBL document CHEMBL1138169, “Oxadiazole derivatives as a novel class of antimitotic agents: Synthesis, inhibition of tubulin polymerization, and activity in tumor cell lines” (Bioorg Med Chem Lett, 2006)

Columns and labels:
[1] = Cmax in mouse at 60 mg/kg, ip; type: ADME, organism-based; set-up: dose 60 mg/kg, route intraperitoneal; settings: in vivo
[2] = Half life in mouse at 60 mg/kg, ip; type: ADME, organism-based; set-up: dose 60 mg/kg, route intraperitoneal; settings: in vivo
[3] = AUC (0-4 h) in mouse at 60 mg/kg, ip; type: ADME, organism-based; set-up: time < 4 hr, dose 60 mg/kg, route intraperitoneal; settings: plasma
Tubulin [4] = assay: Inhibition of tubulin polymerization; type: functional, Homo sapiens
A-431 = assay: Cell cycle arrest in A431 cells by accumulation at G2/M phase; type: functional, cell-based; settings: Homo sapiens
NCI/ADR-RES = assay: Cell cycle arrest in NCI/ADR (MDR) cells by accumulation at G2/M phase; type: functional, cell-based; settings: Homo sapiens
Tubulin [5] = assay: Displacement of [3H]colchicine from tubulin at 65 nM; type: protein-complex assay, Homo sapiens
[6] = Cmax in mouse at 60 mg/kg, po; type: ADME, organism-based; set-up: dose 60 mg/kg, route oral; settings: in vivo
[7] = Half life in mouse at 60 mg/kg, po; type: ADME, organism-based; set-up: dose 60 mg/kg, route oral; settings: in vivo
[8] = AUC (0-4 h) in mouse at 60 mg/kg, po; type: ADME, organism-based; set-up: time < 4 hr, dose 60 mg/kg, route oral; settings: plasma

Structure (SMILES)	IC50 (Tubulin [4]) [nM]	EC50 (A-431) [nM]	further results
COc1cc(Nc2ncccc2-c2n[nH]c(Nc3ccc4c(c3)OCO4)n2)cc(OC)c1			Cmax [1]: 7.3 µM; half-life [2]: 0.62 h; AUC(0-t) at 4 h [3]: 13.6 µM·h
c1cncc(CNc2ncccc2-c2nnc(Nc3ccc4c(c3)OCCO4)o2)c1	700	13	EC50 (NCI/ADR-RES): 19 nM; IC50 (Tubulin [5]): 30 nM; Cmax [1]: 6.5 µM; half-life [2]: 0.8 h; AUC(0-t) at 4 h [3]: 6.7 µM·h
c1ccc(CNc2ncncc2-c2nnc(Nc3ccc4c(c3)OCCO4)o2)nc1	> 30000		
c1cnc(NCc2ccc3c(c2)OCO3)c(-c2nnc(Nc3ccc4c(c3)OCCO4)o2)c1	500	18	
CS(=O)(=O)Nc1ccc(CNc2ncccc2-c2nnc(Nc3ccc4c(c3)OCO4)o2)cc1	3800	71	
Fc1ccc(CNc2ncccc2-c2nnc(Nc3ccc4c(c3)OCCO4)o2)cc1F	700	15	
Fc1ccc(CNc2ncccc2-c2nnc(Nc3ccc4c(c3)OCO4)o2)cc1F	2200	51	
c1ccc(CNc2ccccc2-c2nnc(Nc3ccc4c(c3)OCCO4)o2)nc1	1200	14	EC50 (NCI/ADR-RES): 37 nM; IC50 (Tubulin [5]): 390 nM; Cmax [1]: 6.4 µM; half-life [2]: 1.5 h; AUC(0-t) at 4 h [3]: 17.2 µM·h
Cc1ccc(-c2nnc(Nc3ccc4c(c3)OCCO4)o2)c(NCc2ccccn2)n1	2400	99	
CS(=O)(=O)Nc1ccc(CNc2ncccc2-c2nnc(Nc3ccc4c(c3)OCCO4)o2)cc1	2000	23	
CN(c1ccc2c(c1)OCCO2)c1nnc(-c2cccnc2NCc2ccccn2)o1	> 30000		
c1ccc(CNc2ccccc2-c2cnc(Nc3ccc4c(c3)OCCO4)o2)nc1	1400	35	EC50 (NCI/ADR-RES): 103 nM; IC50 (Tubulin [5]): 10 nM; Cmax [1]: 4.6 µM; half-life [2]: 2.43 h; AUC(0-t) at 4 h [3]: 14.4 µM·h
c1cnc(NCc2ccncc2)c(-c2nnc(Nc3ccc4c(c3)OCO4)o2)c1	1000	20	EC50 (NCI/ADR-RES): 7.8 nM; IC50 (Tubulin [5]): 30 nM; Cmax [1]: 15.1 µM; half-life [2]: 2.6 h; AUC(0-t) at 4 h [3]: 52.6 µM·h
c1cnc(NCc2ccncc2)c(-c2nnc(Nc3ccc4c(c3)OCCO4)o2)c1	29900	18	
Fc1ccc(CNc2ncccc2-c2nnc(Nc3ccc4c(c3)OCCO4)o2)cc1	5000	60	
c1ccc(CNc2ccccc2-c2csc(Nc3ccc4c(c3)OCCO4)n2)nc1	> 30000		
c1ccc(CNc2ccncc2-c2nnc(Nc3ccc4c(c3)OCCO4)o2)nc1	> 30000		
c1coc(CNc2ncccc2-c2nnc(Nc3ccc4c(c3)OCCO4)o2)c1	2000	45	
c1cnc(NCc2ccc3c(c2)OCCO3)c(-c2nnc(Nc3ccc4c(c3)OCCO4)o2)c1	1800	57	

Structure (SMILES)	IC50 (Tubulin [4]) [nM]	EC50 (A-431) [nM]	further results
c1ccc(CNc2ncccc2-c2nnc(Nc3ccc4c(c3)OCCO4)o2)nc1	1900	16	EC50 (NCI/ADR-RES): 27 nM; IC50 (Tubulin [5]): 190 nM; Cmax [1]: 12.5 µM; Cmax [6]: 3.8 µM; half-life [2]: 2.7 h; half-life [7]: 2.2 h; AUC(0-t) at 4 h [3]: 31.2 µM·h; AUC(0-t) at 4 h [8]: 8.8 µM·h
c1ccc(CNc2nccnc2-c2nnc(Nc3ccc4c(c3)OCCO4)o2)nc1	2000	75	
c1ccc(CNc2ccsc2-c2nnc(Nc3ccc4c(c3)OCCO4)o2)nc1	4400	22	EC50 (NCI/ADR-RES): 46 nM; IC50 (Tubulin [5]): 75 nM; Cmax [1]: 59.2 µM; half-life [2]: 0.75 h; AUC(0-t) at 4 h [3]: 102 µM·h
c1ccc(CNc2ncccc2-c2nnc(Nc3ccc4c(c3)OCO4)o2)nc1	1700	49	EC50 (NCI/ADR-RES): 256 nM; IC50 (Tubulin [5]): 30 nM; Cmax [1]: 4.9 µM; half-life [2]: 4.1 h; AUC(0-t) at 4 h [3]: 21.5 µM·h
c1ccc(CNc2ccccc2-c2c[nH]c(Nc3ccc4c(c3)OCCO4)n2)nc1	> 30000		
COc1ccc(CNc2ncccc2-c2nnc(Nc3ccc4c(c3)OCCO4)o2)cc1	1600	23	
c1cnc(NCc2cnccn2)c(-c2nnc(Nc3ccc4c(c3)OCCO4)o2)c1	2200	31	
Fc1cnc(NCc2ccccn2)c(-c2nnc(Nc3ccc4c(c3)OCCO4)o2)c1	3400	82	
c1cnc(NCc2cnccn2)c(-c2nnc(Nc3ccc4c(c3)OCO4)o2)c1	9600	210	
c1cncc(CNc2ncccc2-c2nnc(Nc3ccc4c(c3)OCO4)o2)c1	8800	31	
c1coc(CNc2ncccc2-c2nnc(Nc3ccc4c(c3)OCO4)o2)c1	4900	130	
FC1(F)Oc2ccc(Nc3nnc(-c4cccnc4NCc4ccccn4)o3)cc2O1	13300	780	
FC(F)(F)c1ccc(-c2nnc(Nc3ccc4c(c3)OCCO4)o2)c(NCc2ccccn2)n1	> 30000		
c1cnc(NCC2CCCO2)c(-c2nnc(Nc3ccc4c(c3)OCCO4)o2)c1 (centres undefined)	1700	160	EC50 (NCI/ADR-RES): 128 nM; IC50 (Tubulin [5]): 390 nM; Cmax [1]: 16.4 µM; half-life [2]: 0.78 h; AUC(0-t) at 4 h [3]: 26.3 µM·h
c1ccc(COc2ncccc2-c2nnc(Nc3ccc4c(c3)OCCO4)o2)nc1	18100	260	
COc1ccc(Nc2nnc(-c3cccnc3NCc3ccccn3)o2)cc1	1500	20	
c1cnc(NCC2CCCO2)c(-c2nnc(Nc3ccc4c(c3)OCO4)o2)c1 (centres undefined)	15500	330	
COc1ccc(/C=C\c2cc(OC)c(OC)c(OC)c2)cc1O [COMBRETASTATIN A4]		3.5	EC50 (NCI/ADR-RES): 1.5 nM
CC(=O)O[C@H]1C(=O)[C@@]2(C)[C@H]([C@H](OC(=O)c3ccccc3)[C@]3(O)C[C@H](OC(=O)[C@H](O)[C@@H](NC(=O)c4ccccc4)c4ccccc4)C(C)=C1C3(C)C)[C@]1(OC(C)=O)CO[C@@H]1C[C@@H]2O [PACLITAXEL]		9	EC50 (NCI/ADR-RES): > 10000 nM
